In patent US20060148796A1, “6-Substituted imidazopyrazines” (priority 2003, published 2006):

Assays:
[1] = test system: pentagastrin-stimulated acid secretion of the perfused rat stomach; test: Secretion-inhibiting action on the perfused rat stomach (pentagastrin-stimulated acid secretion, intraduodenal administration in vivo); settings: dose 1 μmol/kg i.d., perfused stomach of anesthetized CD rat, female
Description: Testing of the Secretion-Inhibiting Action on the Perfused Rat Stomach
In Table A which follows, the influence of the compounds according to the invention on the pentagastrin-stimulated add secretion of the perfused rat stomach after intraduodenal administration in vivo is shown.
The abdomen of anesthetized rats (CD rat, female, 200-250 g; 1.5 g/kg Im. urethane) was opened after tracheotomy by a median upper abdominal incision and a PVC catheter was fixed transorally in the esophagus and another via the pylorus such that the ends of the tubes just projected into the gastric lumen. The catheter leading from the pylorus led outward into the right abdominal wall through a side opening.
After thorough rinsing (about 50-100 ml), warm (37° C.) physiological NaCl solution was continuously passed through the stomach (0.5 ml/min, pH 6.8-6.9; Braun-Unita I). The pH (pH meter 632, glass electrode EA 147; φ=5 mm, Metrohm) and, by titration with a freshly prepared 0.01N NaOH solution to pH 7 (Dosimat 665 Metrohm), the secreted HCl were determined in the effluent in each case collected at an interval of 15 minutes.
The gastric secretion was stimulated by continuous infusion of […] (=1.65 ml/h) of i.v. pentagastrin (left femoral vein) about 30 min after the end of the operation (.e. after determination of 2 preliminary fractions). […]

Row | melting point [°C] | Compound | Inhibition of acid secretion (%) [1] [%]
1 | 197 | CCc1cccc(C)c1CNc1nc(C(=O)N2CCCC2)cn2c(C)c(C)nc12 [Example 7, 8-(2-Ethyl-6-methyl-benzylamino)-6-(pyrrolidinocarbonyl)-2,3-dimethyl-imidazo[1,2-a]pyrazine] | 
2 |  | CCc1cccc(C)c1CNc1nc(C(=O)N(C)C)cn2c(C)c(C)nc12 [Example 5, 6-(Dimethylaminocarbonyl)-8-(2-ethyl-6-methyl-benzylamino)-2,3-dimethyl-imidazo[1,2a]-pyrazine] | 49
3 | 163 | CCc1cccc(C)c1CNc1nc(Br)cn2c(C)c(C)nc12.O=C(O)C(=O)O [Example 3, 6-Bromo-8(2-ethyl-6-methyl-benzylamino)-2,3-dimethyl-imidazo[1,2-a]pyrazine oxalate] | 
4 | 230 | CCc1cccc(C)c1CNc1nc(C(=O)O)cn2c(C)c(C)nc12 [Example 6, 8-(2-Ethyl-6-methyl-benzylamino)-2,3-dimethyl-imidazo[1,2-a]pyrazine-6-carboxylic acid] | 
5 | 177 | CCc1cccc(C)c1CNc1nc(COC)cn2c(C)c(C)nc12.Cl [Example 13, 8-(2-Ethyl-6-methyl-benzylamino)-6-(methoxymethyl)-2,3-dimethyl-imidazo[1,2-a]pyrazine hydrochloride] | 46
6 | 166 | CCc1cccc(C)c1CNc1nc(CO)cn2c(C)c(C)nc12 [Example 12, 8-(2-Ethyl-6-methyl-benzylamino)-6-(hydroxymethyl)-2,3-dimethyl-imidazo[1,2-a]pyrazine] | 
7 | 144 | CCOC(=O)c1cn2c(C)c(C)nc2c(NCc2c(C)cccc2CC)n1 [Example 4, Ethyl 8-(2-ethyl-6-methyl-benzylamino)-2,3-dimethyl-imidazo[1,2-a]pyrazine-6-carboxylate] | 
